Several values for one entry are separate records, joined by “and”; a condition that tells them apart may be missing. Equal entries are not always repeated.
Experiments:
H820 cells [1] = test: cells; conditions: Homo sapiens, NCI-H820, read-out: cell viability (%)
p27^Kip1 (CDKN1B) = test: Real-time PCR of p27^Kip1 expression in H1975; type: cell-based, human; conditions: H1975, 24 h, flunarizine 2.5, 5, or 10 μM or SAHA 0.25, 0.5, or 1 μM; all concentrations tested
Protocol: (§1) Reverse transcription was performed using 1 μg of total RNA sample with the PrimeScript First Strand cDNA Synthesis Kit (TaKaRa Biomedical Technology) at 37 °C for 10 min. The cDNA was then amplified by real-time PCR to determine the relative expression of p27^Kip1 and BIM using the KAPA SYBR FAST qPCR kit (KapaBiosystems, Wilmington, Massachusetts) with a LightCycler 480 Instrument I instrument (Roche Applied Science, Indianapolis, Indiana). The house-keeping gene GAPDH was also measured for normalization. Specific primer sequences used in the PCR reactions are p27^Kip1, forward 5′-[…]-3′ and reverse 5′-[…]-3′; Bim, forward 5′-[…]-3′ and reverse 5′-[…]-3′; and GAPDH, forward 5′-[…]-3′ and reverse 5′-[…]-3′. The PCR temperature program was set at 95 °C for 5 min, followed by 35 cycles of 95 °C for 10 s and 60 °C for 10 s. The fluorescent signal was detected at the end of the PCR elongation step of every cycle to keep track of the amount of amplified DNA. ΔCt was calculated by subtracting the Ct of GAPDH from the Ct of Bim or p27^Kip1. Fold change in gene expression was analyzed by the 2^–ΔΔCt method.

recombinant human HDAC6 = target: T1, recombinant human HDAC6 (Homo sapiens, UniProt Q9UBN7); test: biochemical; conditions: IC50 HDAC6, recombinant HDAC6, mean ± SD, three independent experiments
T1 sequence (Q9UBN7 1-1215): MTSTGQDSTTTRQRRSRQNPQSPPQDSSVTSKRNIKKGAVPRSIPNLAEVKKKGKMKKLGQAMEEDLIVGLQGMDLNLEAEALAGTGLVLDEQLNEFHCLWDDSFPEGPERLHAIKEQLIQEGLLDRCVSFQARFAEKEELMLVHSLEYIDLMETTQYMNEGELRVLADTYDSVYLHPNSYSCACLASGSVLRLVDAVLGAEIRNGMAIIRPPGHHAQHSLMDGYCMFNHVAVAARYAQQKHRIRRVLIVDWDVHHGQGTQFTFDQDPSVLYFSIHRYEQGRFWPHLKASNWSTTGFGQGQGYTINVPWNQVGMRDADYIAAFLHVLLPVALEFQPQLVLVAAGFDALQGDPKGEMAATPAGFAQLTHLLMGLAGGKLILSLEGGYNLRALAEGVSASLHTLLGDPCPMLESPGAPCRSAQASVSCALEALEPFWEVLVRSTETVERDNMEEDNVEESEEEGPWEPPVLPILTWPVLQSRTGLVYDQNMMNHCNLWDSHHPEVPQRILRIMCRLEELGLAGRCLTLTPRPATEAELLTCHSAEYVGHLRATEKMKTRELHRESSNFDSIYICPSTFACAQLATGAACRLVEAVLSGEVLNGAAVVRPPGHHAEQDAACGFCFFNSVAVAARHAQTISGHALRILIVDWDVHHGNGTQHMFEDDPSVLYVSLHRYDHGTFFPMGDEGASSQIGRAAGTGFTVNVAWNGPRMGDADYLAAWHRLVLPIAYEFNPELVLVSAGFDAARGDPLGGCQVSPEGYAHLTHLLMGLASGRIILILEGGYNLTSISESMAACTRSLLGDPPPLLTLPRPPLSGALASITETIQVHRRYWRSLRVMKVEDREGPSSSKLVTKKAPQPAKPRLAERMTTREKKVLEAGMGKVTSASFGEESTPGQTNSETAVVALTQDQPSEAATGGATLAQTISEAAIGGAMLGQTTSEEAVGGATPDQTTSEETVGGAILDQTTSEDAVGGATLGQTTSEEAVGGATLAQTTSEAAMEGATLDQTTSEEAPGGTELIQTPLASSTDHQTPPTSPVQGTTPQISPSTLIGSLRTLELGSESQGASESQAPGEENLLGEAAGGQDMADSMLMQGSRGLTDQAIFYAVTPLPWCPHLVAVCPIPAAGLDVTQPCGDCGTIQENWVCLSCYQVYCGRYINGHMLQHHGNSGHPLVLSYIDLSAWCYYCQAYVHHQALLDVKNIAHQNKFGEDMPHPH

recombinant human HDAC3 = recombinant human HDAC3 (Homo sapiens, UniProt O15379); test: biochemical
H1975 cells [2] = test: cells; conditions: Homo sapiens, NCI-H1975, read-out: cell viability (%)
NSCLC cell lines = test: cells; type: cell-based; conditions: Homo sapiens, read-out: effect on cancer cell viability
Bim (BCL2L11) = test: Real-time PCR of Bim expression in H1975; type: cell-based, human; conditions: H1975, 24 h, flunarizine 2.5, 5, or 10 μM or SAHA 0.25, 0.5, or 1 μM; all concentrations tested
Protocol: as §1

H820 cells [3] = test system: H820 cells
recombinant human HDAC2 = target: T2, recombinant human HDAC2 (Homo sapiens, UniProt Q92769); test: Biochemical HDAC activity assay, recombinant HDAC2; conditions: recombinant HDAC2, mean ± SD, three independent experiments
T2 construct: purchased Creative Biomart

[4] = in vivo; cited from earlier work
H1650 cells = test: cells; conditions: Homo sapiens, NCI-H1650, read-out: cell viability (%)
vimentin = test: Western blot of vimentin in H1975 cells; type: cell-based, human; conditions: concentration-dependent
H1975 cells [5] = conditions: flunarizine alone 5 or 10 μM, 24 h (Figure 3)
Protocol: Afterward, ethanol was discarded, and the fixed cells were incubated with RNase I (25 μg/mL) at 37 °C for 30 min. Then, the cells were stained with propidium iodide (50 μg/mL) at room temperature for at least 1 h and analyzed by using a flow cytometer (BD LSRFortessa; BD Biosciences). At least 10,000 events were acquired for each sample. ModFit software (Verity Software House, Topsham, Maine) was used to analyze the cell cycle profile.

A549 cells = test: SRB cell proliferation assay, A549; conditions: Homo sapiens, A549, read-out: cell viability (%)

T2 sequence (Q92769 whole entry): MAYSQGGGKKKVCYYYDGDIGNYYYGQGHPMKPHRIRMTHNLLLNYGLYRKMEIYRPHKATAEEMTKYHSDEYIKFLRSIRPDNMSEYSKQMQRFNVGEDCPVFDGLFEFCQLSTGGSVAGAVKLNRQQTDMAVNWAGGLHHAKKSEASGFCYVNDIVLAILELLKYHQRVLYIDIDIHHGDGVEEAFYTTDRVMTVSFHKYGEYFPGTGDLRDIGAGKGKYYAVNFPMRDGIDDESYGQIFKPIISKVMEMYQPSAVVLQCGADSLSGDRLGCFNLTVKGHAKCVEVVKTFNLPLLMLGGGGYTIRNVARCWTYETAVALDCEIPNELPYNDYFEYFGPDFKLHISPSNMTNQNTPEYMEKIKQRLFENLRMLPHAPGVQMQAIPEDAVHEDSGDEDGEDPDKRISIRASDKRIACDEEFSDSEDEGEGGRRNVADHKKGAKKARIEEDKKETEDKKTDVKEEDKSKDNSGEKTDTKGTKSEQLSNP
Sequence of recombinant human HDAC3 (O15379 whole entry): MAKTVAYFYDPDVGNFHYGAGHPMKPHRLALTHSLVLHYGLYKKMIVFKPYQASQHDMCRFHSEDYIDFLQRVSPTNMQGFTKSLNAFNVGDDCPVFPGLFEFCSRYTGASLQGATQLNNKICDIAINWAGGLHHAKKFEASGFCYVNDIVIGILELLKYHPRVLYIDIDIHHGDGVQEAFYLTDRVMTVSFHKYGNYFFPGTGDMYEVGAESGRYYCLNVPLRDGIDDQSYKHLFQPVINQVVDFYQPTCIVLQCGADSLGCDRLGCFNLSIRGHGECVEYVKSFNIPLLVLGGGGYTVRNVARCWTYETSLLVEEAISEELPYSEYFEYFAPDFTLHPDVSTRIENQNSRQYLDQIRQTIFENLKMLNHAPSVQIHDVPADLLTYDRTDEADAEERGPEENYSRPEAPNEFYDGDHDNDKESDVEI
Sequence of recombinant human HDAC3 (Q9Y618 395-489 partner limits assumed): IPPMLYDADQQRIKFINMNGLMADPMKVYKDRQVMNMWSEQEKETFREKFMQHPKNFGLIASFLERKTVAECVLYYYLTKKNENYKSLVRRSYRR

For `Fc1ccc(C(c2ccc(F)cc2)N2CCN(C/C=C/c3ccccc3)CC2)cc1` [flunarizine], the viability at 2.5 µM (H820 cells [1]) was 103 ± 5%, the viability at 5 µM (H820 cells [1]) was 94 ± 7% and the “p27^Kip1 expression” value (p27^Kip1 (CDKN1B)) was “significantly increase”. The IC50 (recombinant human HDAC6) was ~5600 nM and 5600 nM, the IC50 (recombinant human HDAC3) was 305 ± 31 nM and the viability at 2.5 µM (H1975 cells [2]) was 95 ± 8%. For the same compound, the viability at 5 µM (H1975 cells [2]) was 94 ± 6%, the viability at 10 µM (H1975 cells [2]) was 86 ± 7% and the viability at 20 µM (NSCLC cell lines) was no more than 25%. The “effect on cell viability of BEAS-2B” value (BEAS-2B) was “did not appreciably affect the cell viability”, the Bim expression (Bim (BCL2L11)) was “significantly increase” and the viability (H820 cells [3]) was 89 ± 5%. For the same compound, the IC50 (recombinant human HDAC2) was 360 ± 26 nM, the elimination half-life [4] was “around 18 days” and the viability at 2.5 µM (H1650 cells) was 93 ± 4%. For the same compound, the viability at 5 µM (H1650 cells) was 92 ± 5%, the viability at 10 µM (H1650 cells) was 87 ± 6% and the vimentin expression (vimentin) was “downregulate”. The “G1 cell cycle arrest” value (H1975 cells [5]) was “induce G1 cell cycle arrest”, the viability at 2.5 µM (A549 cells) was 101 ± 5% and the viability at 5 µM (A549 cells) was 95 ± 6%. The viability at 10 µM (A549 cells) was 102 ± 8%.

Reference: article PMC10580381 (ACS Pharmacology & Translational Science, 2023)
